According to the NIST ThermoML archive (doi:10.1016/j.jct.2014.05.020):
Numbers after ± are expanded uncertainties.

Assay: excess molar enthalpy (molar enthalpy of mixing); xn = mol fraction of the nth substance listed
Details: Liquid, Flow calorimetry

CCO [ethanol] + O
excess molar enthalpy [kcal/mol]
Details | 423.2 K | 523.2 K
5000 kPa, x2 = 0.1473 | 0.0939 ± 0.00359 | –
5000 kPa, x2 = 0.2673 | 0.159 ± 0.00335 | –
5000 kPa, x2 = 0.4508 | 0.215 ± 0.00335 | –
5000 kPa, x2 = 0.5845 | 0.218 ± 0.00335 | –
5000 kPa, x2 = 0.6864 | 0.196 ± 0.00311 | –
5000 kPa, x2 = 0.7665 | 0.164 ± 0.00287 | –
5000 kPa, x2 = 0.8312 | 0.128 ± 0.00287 | –
5000 kPa, x2 = 0.8845 | 0.0917 ± 0.00263 | –
5000 kPa, x2 = 0.9292 | 0.0569 ± 0.00263 | –
5000 kPa, x2 = 0.9673 | 0.0255 ± 0.00263 | –
15000 kPa, x2 = 0.1466 | 0.0918 ± 0.00382 | 0.188 ± 0.00645
15000 kPa, x2 = 0.2662 | 0.156 ± 0.0043 | 0.304 ± 0.00478
15000 kPa, x2 = 0.4493 | 0.215 ± 0.00454 | 0.401 ± 0.00454
15000 kPa, x2 = 0.5831 | 0.218 ± 0.00454 | 0.41 ± 0.00574
15000 kPa, x2 = 0.6851 | 0.197 ± 0.0043 | 0.373 ± 0.00765
15000 kPa, x2 = 0.7655 | 0.166 ± 0.0043 | 0.322 ± 0.0098
15000 kPa, x2 = 0.8304 | 0.13 ± 0.0043 | 0.261 ± 0.012
15000 kPa, x2 = 0.8839 | 0.0937 ± 0.00454 | 0.198 ± 0.0143
15000 kPa, x2 = 0.9289 | 0.0584 ± 0.00454 | 0.131 ± 0.0172
15000 kPa, x2 = 0.9671 | 0.0263 ± 0.00454 | 0.0634 ± 0.0237
